Experimental data as given in patent US12329827B2, “Devices, compositions and related methods for accelerating and enhancing bone repair” (THE REGENTS OF THE UNIVERSITY OF MICHIGAN, priority 2015, dated 2025).

What was measured:
[1] = system: irradiated mandibular fractures; assay: Irradiated mandibular fracture, implanted nano-DFO vs standard DFO (Example V); format: in vivo, Rats; details: radiated fracture, 40-day healing
Procedure: Rats (n=44) were divided into 4 groups. Fracture, radiated fracture, radiated fracture with standard DFO and radiated fracture with nano-DFO. Radiated groups received radiotherapy 2 weeks prior to mandibular osteotomy. The nano-DFO group received implantation of the drug at the time of surgery. Following a 40-day healing period, mandibles were assessed for bony-union, imaged with μCT, and mechanically tested to failure. ANOVA was used for comparison and (p<0.05).

[2] = system: murine mandibular DO model; assay: Mandibular distraction osteogenesis model, DFO injections into the regenerate gap (Example I); format: in vivo, Sprague-Dawley rats
Source text: The effectiveness of DFO in enhancing regenerate vascularity at a full consolidation period (28 days) in a murine mandibular DO model was established. To investigate whether this augmentation in vascularity would function to accelerate consolidation without compromising regenerate quality or strength, consolidation periods prior to μCT imaging and biomechanical testing (BMT) were progressively shortened. Three time points (14 d, 21 d and 28 d) were selected and six groups of Sprague-Dawley rats (n=60) were equally divided into control (C) and experimental (E) groups for each time period. Each group underwent external fixator placement, mandibular osteotomy, and a 5.1 mm distraction. During distraction, the experimental groups were treated with DFO injections into the regenerate gap. After consolidation, mandibles were imaged and tension tested to failure. ANOVA was conducted between groups, and p<0.05 was considered statistically significant. […] The benefit of treatment was further substantiated by a striking 100% increase in the number of clinically appreciated bony unions at this early time-period (C:4/10 vs. E:8/10, FIG. 2) (see, e.g., Donneys, Alexis, et al., Bone 55.2 (2013): 384-390).

[3] = system: irradiated mandible fracture; assay: Fracture healing in the irradiated mandible, DFO injected into callus site (Example II); format: in vivo, rats
Source text: The effects of radiation on bone formation and healing are mediated through the mechanisms of vascular damage, direct cellular depletion and diminished function of osteocytes. Over time, this accumulated damage predisposes patients to the debilitating problem of late pathologic fractures and non-unions. Here, the use of DFO was employed to bolster the vascular response during bone healing in this setting. It was posited that the untoward effects of radiotherapy on vascular density and osteocyte count and ultimately the mineralization and biomechanical strength of our bone would be improved with the addition of DFO. 12 rats received fractionated radiotherapy to left hemi-mandibles. After recovery, fracture repair ensued with external fixator placement and mandibular osteotomy. DFO was injected into the callus site every other day from post-operative days 4-12. A 40-day healing period was allowed prior to vessel perfusion, PCT, BMT, and histologic processing. Mandibles were dissected and gross union was assessed. Union was defined as bony bridging and the absence of motion across the fracture site. Outcome data was analyzed with ANOVA, and p≤0.05 was statistically significant. The DFO group was compared with two other groups: fracture-Fx and radiated fracture-XFx (n=12, 12).

[4] = system: human umbilical vein endothelial (HUVEC) cells exposed to radiation; assay: Tubule formation of irradiated HUVEC cells in Matrigel (Example III); format: cell-based
Procedure: The effect of DFO on endothelial cells exposed to radiation in vitro was investigated. […] Four groups of human umbilical vein endothelial (HUVEC) cells (control, radiated, radiated+low dose DFO, or radiated+high dose DFO) were incubated in Matrigel and video recorded in real-time over 12 hours. DFO groups received either 25 or 50 μM doses at the time of incubation. Tubule formation was photographed at 100× magnification every four hours. Tubule numbers between groups were compared using ANOVA with p≤0.05 considered statistically significant. A severe diminution in endothelial tubule formation after radiotherapy was observed. Specifically, tubule formation was diminished 30%, 34%, and 27% respectively, compared to control values (p=0.01, at 4, 8, and 12 hours). The effects of radiation were strikingly remediated by treatment with high-dose DFO. […] These findings were clearly observed with real-time recording. […] This evidence supports the contention that DFO strongly remediates the effects of radiation on endothelial tubule formation (see, e.g., Donneys, Alexis, et al., Plastic and Reconstructive Surgery 131.5S (2013): 141).

CC(=O)N(O)CCCCCNC(=O)CCC(=O)N(O)CCCCCNC(=O)CCC(=O)N(O)CCCCCN [DFO, N′-{5-[Acetyl(hydroxy)amino]pentyl}-N-[5-({4-[(5-aminopentyl)(hydroxy)amino]-4-oxobutanoyl}amino)pentyl]-N-hydroxysuccinamide]
Bony Unions [1]: 67%
radiation-induced decreases in all metrics [1]: remediated
Bone Mineral Density (BMD) vs non-treated controls ([2]; 14 days of consolidation): significant increases
Bone Volume Fraction (BVF) vs non-treated controls ([2]; 14 days of consolidation): significant increases
Ultimate Load (UL) vs non-treated controls ([2]; 14 days of consolidation): significant increases
increase in the number of bony unions vs non-treated controls ([2]; 14 days of consolidation): 100%
number of clinically appreciated bony unions ([2]; 14 days of consolidation, unions/animals): 8/10
BVF, BMD, Yield and UL at 14 days vs fully consolidated 28 d control group ([2]; 14 days with treatment): comparable
bony union rate ([2]; 28 days): 100%
BMT and mineralization metrics vs Fx group ([3]; 40-day healing): no difference
BMT and mineralization metrics vs XFx group ([3]; 40-day healing): significant increase
Vessel Number, Thickness and Separation ([3]; 40-day healing): significant restorative effects
increase in bony unions vs XFx ([3]; 40-day healing): 42%
Vessel Volume vs XFx ([3]; 40-day healing, p=0.029): significant restoration to control level
bony union ([3]; 40-day healing, Fx 100%, XFx 25%): 67%
empty lacunae vs XFx ([3]; histomorphometry, p=0.000): decrease
osteocyte count vs XFx ([3]; histomorphometry, p=0.000): significant restoration to control level
tubule formation vs radiated cells ([4]; high dose DFO (50 μM), 4, 8 and 12 hours, p=0.02): significantly increased
tubule formation vs normal (control) levels ([4]; high dose DFO (50 μM), each time point): reached or exceeded normal levels
time of incubation to organization of cultures ([4]; high-dose DFO (50 μM), real-time recording): ≤ 2 h
